# From patent US20230000808A1, “COMPOSITIONS AND METHODS EXCLUDING OR WITH REDUCED GLUTAMINE FOR THE TREATMENT OF HEMOGLOBINOPATHIES AND THALASSEMIAS” (AXCELLA HEALTH INC., priority 2019, published 2023)
# What was measured:
# ICAM-1 = ICAM-1 cell integrated intensity in HLMVEC treated with TNF-α (immunofluorescence); format: cell-based, human; conditions: for ICAM-1 Cell Integrated Intensity Median: HLMVEC + 0.5 ng/mL TNF-α, 24 h, amino acids 20x HMDB, Nac/Cit/Car 5 mM as bracketed
# Experimental: (§1) Primary Human Lung Microvascular Endothelial Cells (HLMVEC; Lonza) were seeded at 6,000 cells per well in Endothelial Cell Growth Basal Medium-2 (Lonza) supplemented with Fetal Bovine Serum (FBS; Lonza), human EGF (Lonza), human VEGF (Lonza), R3-Insulin-like Growth Factor-1 (Lonza), ascorbic acid (Lonza), hydrocortisone (Lonza), human FGF-beta (Lonza), and gentamicin/amphotericin-b (Lonza) in a 96-well plate (Thermo Fisher). The cells were incubated for 45 minutes at room temperature, then incubated overnight at 37° C./5% CO2.
# (§2) Following overnight incubation, cell were washed once with 150 μL of Dulbecco's phosphate buffered saline (DPBS; Gibco), and then treated with Endothelial Basal Medium MCB-131 (amino acid, glucose, sodium pyruvate, and phenol red free; US Biologicals) containing a defined custom amino acid concentration based on physiological concentrations in blood of patients with SCD (thus recapitulating observed metabolic imbalances such as the depletion of certain essential amino acids including arginine and aspartate and enrichment of certain non-essential amino acids including glutamate and asparagine), dialyzed FBS (Hyclone), human EGF (Lonza), human VEGF (Lonza), R3-Insulin-like Growth Factor-1 (Lonza), ascorbic acid (Lonza), hydrocortisone (Lonza), human FGF-beta (Lonza), and gentamicin/amphotericin-b (Lonza), glucose, 10 mM HEPES, sodium pyruvate, and sodium bicarbonate supplemented with one of the following: • a. PBS (vehicle control), • b. 0.5 ng/mL Tumor Necrosis Factor alpha (TNFα) and PBS, or; • c. 0.5 ng/mL TNF-α and amino acid treatments at 20× mean physiological concentrations in plasma based on values published in the Human Metabolome Database (HMDB) in PBS.
# (§3) After 24 hours of treatment, cells were washed once with 150 μL of DPBS (Gibco), then fixed with 4% paraformaldehyde. Following fixation, cells were stained with anti-ICAM-1 [MEM-111] (mouse IgG2a anti-human; abcam) and anti-VCAM1 [1.4C3] (mouse IgG1, K anti-human; abcam) primary antibodies at 1000×, and 100× dilutions respectively. Cells were then stained with Goat anti-Mouse IgG2a Cross-Adsorbed Secondary Antibody, Alexa Fluor 594 (Invitrogen) and Goat anti-Mouse IgG1 Cross-Adsorbed Secondary Antibody, Alexa Fluor 647 (Invitrogen) secondary antibodies. Nuclei were stained with Hoechst 3342 (Life Technologies).
# (§4) Antibody binding was detected by fluorescence microscopy using a high content imager (Molecular Devices). Images were analyzed using MetaXpress 6 software to determine the integrated intensity per cell for each wavelength corresponding to ICAM-1 or VCAM-1.
# HLMVEC = assay: META-rank score, composite of VCAM1, ICAM1 and IL6 in the HLMVEC model; format: cell-based, human; conditions: HLMVEC + TNF-α; lower score = more optimal; 20x HMDB / 5 mM
# Experimental: The ability of single amino acids and combinations to simultaneously impact these phenotypes was measured by a META-rank score (Tables 17 and 18). META-rank score is a composite measure that considers the optimal impact on all 3 phenotypes (e.g. decrease VCAM1, ICAM1, and IL6) in the HLMVEC model.
# VCAM-1 = VCAM-1 cell integrated intensity in HLMVEC treated with TNF-α (immunofluorescence); format: cell-based, human; conditions: for VCAM-1 Cell Integrated Intensity Median: HLMVEC + 0.5 ng/mL TNF-α, 24 h, amino acids 20x HMDB, Nac/Cit/Car 5 mM as bracketed
# Experimental: as §1, §2, §3, §4
# IL-6 [1] = assay: Secreted IL-6 in HLMVEC treated with TNF-α (FirePlex); format: cell-based, human; conditions: HLMVEC + 0.5 ng/mL TNF-α, 24 h; amino acids 20x HMDB, Nac/Cit/Car 5 mM as bracketed
# Experimental: as §1, §2
# Supernatants were analyzed for IL-6 concentrations using a Human Cytokines FirePlex-HT Panel 1 kit (abcam) according to the manufacturer-supplied instructions. Particles were imaged on a high content imager (Molecular Devices), and results were interpolated from a standard curve with FirePlex Analysis Workbench Software (abcam) according manufacturer's recommendations.
# IL-6 [2] = assay: LPS-induced IL-6 secretion in primary human monocyte-derived macrophages (ELISA); format: cell-based; set-up: Donor 1 IL-6 Measurements Mean: unit not given here; conditions: LPS, baseline subtracted
# Experimental: (§5) Primary human PMBC derived macrophages were seeded on day 0 at 3.0×10^4 cells per well in 96-well microplates (ThermoFisher) in Dulbecco's Modified Eagle Medium (DMEM) (Gibco) supplemented with penicillin-streptomycin (Hyclone) and 10% heat inactivated fetal bovine serum (HI-FBS) (Atlanta Bio) and incubated overnight at 37° C., 5% CO2. On day 1, cells were washed once with 150 μl per well DPBS (Gibco) and treated with 75 μl of: • a. […] The same medium described above with one amino acid at various concentrations including complete dropout. […] On day 3, the supernatant was collected and immediately frozen in −80° C. freezer. Cells were washed once with 150 μl DPBS and viability was assessed using the WST-8 Cell Proliferation Cytotoxicity Assay (Dojindo). […] Protein levels in supernatant samples were analyzed by ELISA for IL-6 and TNFα using commercially available kits (R&D Systems) according to manufacturer-supplied protocols.
# TNFα = assay: LPS-induced TNF-α secretion in primary human monocyte-derived macrophages (ELISA); format: cell-based; conditions: for TNF-α Measurements Mean: LPS, baseline subtracted
# Experimental: as §5
# [3] = 0.5 ng/mL TNF-α, amino acids at 20× HMDB, 24 hours
smiles,measurement,setting,value
N[C@@H](Cc1c[nH]c2ccccc12)C(=O)O [Trp],ICAM-1 Cell Integrated Intensity Median,ICAM-1,0.171
same,Meta-Rank (Table 18),HLMVEC,24
same,Metarank (Table 17),HLMVEC,12
same,VCAM-1 Cell Integrated Intensity Median,VCAM-1,0.162
same,Secreted IL6 Median,IL-6 [1],−0.357
CC(C)[C@H](N)C(=O)O [Valine],Donor 1 IL-6 Measurements Mean,IL-6 [2]; Conc. 234 μM (baseline),0
same,Donor 1 IL-6 Measurements Mean,IL-6 [2]; Conc. 4684 μM,−85.9843
same,Donor 1 IL-6 Measurements Mean,IL-6 [2]; Conc. 11710 μM,−97.25
same,Donor 1 IL-6 Measurements Mean,IL-6 [2]; Conc. 23420 μM,−106.268
same,Donor 2 IL-6 Measurements Mean,IL-6 [2]; Conc. 234 μM (baseline),−4.7E−15
same,Donor 2 IL-6 Measurements Mean,IL-6 [2]; Conc. 4684 μM,−4.528
same,Donor 2 IL-6 Measurements Mean,IL-6 [2]; Conc. 11710 μM,−1.196
same,Donor 2 IL-6 Measurements Mean,IL-6 [2]; Conc. 23420 μM,4.396
same,Donor 3 IL-6 Measurements Mean,IL-6 [2]; Conc. 234 μM (baseline),4.26E−14
same,Donor 3 IL-6 Measurements Mean,IL-6 [2]; Conc. 4684 μM,−30.0609
same,Donor 3 IL-6 Measurements Mean,IL-6 [2]; Conc. 11710 μM,−43.8022
same,Donor 3 IL-6 Measurements Mean,IL-6 [2]; Conc. 23420 μM,−29.2004
same,TNF-α Measurements Mean,"TNFα; Donor 1, Conc. 234 μM (baseline)",0
same,TNF-α Measurements Mean,"TNFα; Donor 1, Conc. 4684 μM",−40.37
same,TNF-α Measurements Mean,"TNFα; Donor 1, Conc. 11710 μM",−41.77
same,TNF-α Measurements Mean,"TNFα; Donor 1, Conc. 23420 μM",−14.98
same,TNF-α Measurements Mean,"TNFα; Donor 2, Conc. 234 μM (baseline)",−4.7E−15
same,TNF-α Measurements Mean,"TNFα; Donor 2, Conc. 4684 μM",−0.00221
same,TNF-α Measurements Mean,"TNFα; Donor 2, Conc. 11710 μM",−0.835
same,TNF-α Measurements Mean,"TNFα; Donor 2, Conc. 23420 μM",−1.251
same,TNF-α Measurements Mean,"TNFα; Donor 3, Conc. 234 μM (baseline)",−2.4E−15
same,TNF-α Measurements Mean,"TNFα; Donor 3, Conc. 4684 μM",0.126
same,TNF-α Measurements Mean,"TNFα; Donor 3, Conc. 11710 μM",−2.599
same,TNF-α Measurements Mean,"TNFα; Donor 3, Conc. 23420 μM",3.688
CC(C)C[C@H](N)C(=O)O [Leu],ICAM-1 Cell Integrated Intensity Median,ICAM-1,0.086
same,Meta-Rank (Table 18),HLMVEC,20
same,Metarank (Table 17),HLMVEC,7
same,VCAM-1 Cell Integrated Intensity Median,VCAM-1,0.125
same,Secreted IL6 Median,IL-6 [1],−0.491
N[C@@H](Cc1c[nH]cn1)C(=O)O [His],ICAM-1 Cell Integrated Intensity Median,ICAM-1,0.084
same,Meta-Rank (Table 18),HLMVEC,18.5
same,Metarank (Table 17),HLMVEC,22
same,VCAM-1 Cell Integrated Intensity Median,VCAM-1,0.109
same,Secreted IL6 Median,IL-6 [1],−0.198
NC(=O)CC[C@H](N)C(=O)O [Gln],ICAM-1 Cell Integrated Intensity Median,ICAM-1,0.237
same,Meta-Rank (Table 18),HLMVEC,29
same,Metarank (Table 17),HLMVEC,28
same,VCAM-1 Cell Integrated Intensity Median,VCAM-1,0.372
same,Secreted IL6 Median,IL-6 [1],0.043
"NCC(=O)O [Gly, glycine]",TNFα induced ICAM-1 expression levels in HLMVEC,ICAM-1; [3],reduced levels of ICAM-1 expression to a lesser extent
same,ICAM-1 Cell Integrated Intensity Median,ICAM-1,−0.261
same,Meta-Rank (Table 18),HLMVEC,3
same,Metarank (Table 17),HLMVEC,26
same,VCAM-1 expression in HLMVEC,VCAM-1; [3],greatly reduced
same,VCAM-1 Cell Integrated Intensity Median,VCAM-1,−0.298
same,Secreted IL6 Median,IL-6 [1],−0.010
CC[C@H](C)[C@H](N)C(=O)O [Isoleucine],Donor 1 IL-6 Measurements Mean,IL-6 [2]; Conc. 66 μM (baseline),0
same,Donor 1 IL-6 Measurements Mean,IL-6 [2]; Conc. 1328 μM,25.98
same,Donor 1 IL-6 Measurements Mean,IL-6 [2]; Conc. 3320 μM,−15.8843
same,Donor 1 IL-6 Measurements Mean,IL-6 [2]; Conc. 6639 μM,−218.332
same,Donor 2 IL-6 Measurements Mean,IL-6 [2]; Conc. 66 μM (baseline),0
same,Donor 2 IL-6 Measurements Mean,IL-6 [2]; Conc. 1328 μM,−2.318
same,Donor 2 IL-6 Measurements Mean,IL-6 [2]; Conc. 3320 μM,2.305
same,Donor 2 IL-6 Measurements Mean,IL-6 [2]; Conc. 6639 μM,−1.774
same,Donor 3 IL-6 Measurements Mean,IL-6 [2]; Conc. 66 μM,−6.69
same,Donor 3 IL-6 Measurements Mean,IL-6 [2]; Conc. 1328 μM,−28.9897
same,Donor 3 IL-6 Measurements Mean,IL-6 [2]; Conc. 3320 μM,0
same,Donor 3 IL-6 Measurements Mean,IL-6 [2]; Conc. 6639 μM,−16.3663
same,TNF-α Measurements Mean,"TNFα; Donor 1, Conc. 66 μM (baseline)",0
same,TNF-α Measurements Mean,"TNFα; Donor 1, Conc. 1328 μM",−42.68
same,TNF-α Measurements Mean,"TNFα; Donor 1, Conc. 3320 μM",−96.3
same,TNF-α Measurements Mean,"TNFα; Donor 1, Conc. 6639 μM",−40.95
same,TNF-α Measurements Mean,"TNFα; Donor 2, Conc. 66 μM (baseline)",4.74E−15
same,TNF-α Measurements Mean,"TNFα; Donor 2, Conc. 1328 μM",2.919
same,TNF-α Measurements Mean,"TNFα; Donor 2, Conc. 3320 μM",10.26
same,TNF-α Measurements Mean,"TNFα; Donor 2, Conc. 6639 μM",19.26
same,effect on LPS-induced TNF-α secretion,"TNFα; Donor 2, Two Way ANOVA Dunnett",increased
same,TNF-α Measurements Mean,"TNFα; Donor 3, Conc. 66 μM (baseline)",−2.4E−15
same,TNF-α Measurements Mean,"TNFα; Donor 3, Conc. 1328 μM",−6.23
same,TNF-α Measurements Mean,"TNFα; Donor 3, Conc. 3320 μM",3.309
same,TNF-α Measurements Mean,"TNFα; Donor 3, Conc. 6639 μM",−1.66
